Each block holds one compound with its values, some of them ahead of it. Peptide text beside a SMILES is read from it. * marks the point of attachment. Cbz = O=C(OCc1ccccc1)*; CH2F = FC*
Experiments:
[1] = test system: TNF-mediated relocation of TRADD-EYFP in HeLa cells; experiment: TNF-mediated relocation of TRADD-EYFP / EYFP-TRADD in stably transfected HeLa cells (Example 1, clone HeLa/TRADD-EYFP#49); type: cell-based, human; conditions: for blocking of TNF-induced relocalisation of fluorescently tagged TRADD to punctuate structures: in the presence of TNF, R-7050 100 μM with 1000 ng/ml TNF (FIG. 6), etanercept FIG. 9
Excerpt: The pTREhyg-EYFP-TRADD and pTREhyg-TRADD-EYFP expression vectors were stably transfected using PolyFect® Transfection Reagent (Qiagen), according to the manufacturer's protocol, into HeLa Tet-On Cell Line cells (Clontech Laboratories, Inc.). This cell line is a neomycin resistant human cervical epithelioid carcinoma cell line transformed with a modified version of pTet-On which has a nuclear localization signal fused to the N-terminus (pUHD172-1neo).
Intracellular location of EYFP-TRADD and TRADD-EYFP was determined using fluorescence microscopy. Using a fluorescence microscope, cells are illuminated with light of a specific wavelength which is absorbed by the EYFP, causing it to emit longer wavelengths of light (of a different colour than the absorbed light). The illumination light is separated from the much weaker emitted fluorescence through the use of an emission filter, and an image of the cell created.
We then used an automated microscope system (a Thermo Scientific Cellomics ArrayScan HCS Reader) as an automated fluorescence microscopic imaging system designed for high content screening and high content analysis. The instrument features include optics by Carl Zeiss, broad white-light source, 12-bit cooled CCD camera, and controller software. The instrument is designed to work with image analysis modules (Thermo Scientific BioApplications) that automatically convert images into numeric data that capture changes in cell size, shape, intensity, and other properties. The system allows: high content screening, analysis of cells containing fluorescent reporter molecules in an array of locations, treating the cells in the array of locations with one or more test compounds, imaging numerous cells in each location with fluorescence optics, and converting the optical information into digital data. This digital data was then used to determine the positioning, distribution, environment or activity of the fluorescently labelled reporter molecules (EYFP-TRADD or TRADD-EYFP) in the transfected HeLa cells and the distribution of the cells. This information was analysed in terms of a positive, negative or null effect of each test compound being examined. This system allowed differences between untreated and treated cells to be measured, for example by counting the number of fluorescent spots (rather than diffuse fluorescence) in cells.
Using GraphPad Prism (v. 4.01, San Diego, Calif., USA), a dose-response curve was generated (FIG. 7). Percentage responders (y-axis values in FIGS. 7 and 8) were determined as the number of cells with more than five spots, which is an alternative but qualitatively similar measurement to spot count per cell (see below).

[2] = test system: TNF-induced relocalisation of EYFP-TRADD (TNFR1-containing complex I) in HeLa cells; experiment: TNF-mediated relocation of fluorescently tagged TRADD in Clone #49-E2 HeLa cells, 384-well (Example 2); type: cell-based, human; conditions: for selectivity: relocalisation of the reporter molecule EYFP-TRADD effected by other compounds or molecules: added instead of TNF, FIG. 12; for effect of downstream signalling inhibitors on detectable EYFP-TRADD clusters: increasing concentrations, in the presence of TNF, FIGS. 14-16
Protocol: The following experimental procedure to detect the reporter molecule in the presence of absence of a “test” compound (or molecule, as described below) was conducted.
On day 1, 10^3 cells per well were plated in thin glass bottom 384 wells plate in 50 μl of culture media (DMEM glutamax, 10% FBS, peni-strep, geneticin, hygromycin). The cells were incubated overnight at 37° C. On day 2, media was aspirated, and 35 μl of warm DMEM, 2, 5% FBS, HEPES 10 mM added. Then, 15 μl of 4× the test compound diluted in DMEM, 2, 5% FBS, HEPES 10 mM was added to cells using a Biomek laboratory automation workstation (Beckman-Coulter). This was incubated at room temperature for 1.5 min. […] The cells were washed three times with PBS 1× using an Embla 384 Cell Washer (Molecular Devices). Cells were fixed by adding PBS 1×, 5% PFA+Hoescht 0.2 μg/ml using a Multidrop 384 dispensor (Thermo Scientific; 30 μl/well) followed by an incubation for 20 min at room temperature in the dark. After a further three washes of the cells with PBS 1× using the Embla 384 Cell Washer, 60 μl per well of PBS 1×, 1% peni-strep was added. The plate was covered with a transparent sealing film. Readings were then taken on the Scientific Cellomics ArrayScan HCS Reader automated microscope system as used in Example 1.

[3] = biological target: T1, TL1A-activated DR3 receptor (Homo sapiens, UniProt Q93038, P167L); experiment: TL1A-induced TRADD-EYFP relocation in HeLa TRADD DR3 recombinant cells (Example 3); type: cell-based; conditions: FIG. 17
T1 construct: (N); expressed in transfected cells; host or cells: HeLa Tet-On cells stably expressing TRADD-EYFP, transfected with pTRE2-DR3 (HeLa TRADD DR3)
T1 sequence (Q93038 with tags, fused parts or gaps P167L): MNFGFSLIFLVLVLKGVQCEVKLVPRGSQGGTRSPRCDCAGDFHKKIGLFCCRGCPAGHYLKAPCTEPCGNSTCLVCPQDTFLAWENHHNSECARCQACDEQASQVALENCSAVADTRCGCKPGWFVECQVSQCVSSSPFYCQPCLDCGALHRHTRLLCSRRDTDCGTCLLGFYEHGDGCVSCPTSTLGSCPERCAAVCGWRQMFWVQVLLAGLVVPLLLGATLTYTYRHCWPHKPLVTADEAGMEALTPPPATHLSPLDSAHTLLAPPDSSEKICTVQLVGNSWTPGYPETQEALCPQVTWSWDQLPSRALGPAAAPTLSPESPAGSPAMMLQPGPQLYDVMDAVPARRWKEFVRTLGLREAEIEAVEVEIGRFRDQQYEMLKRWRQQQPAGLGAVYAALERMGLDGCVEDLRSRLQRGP
Excerpt: (§1) In a further example of the present invention, a method involving the TL1A-activated DR3 receptor was developed. The TRADD-EYFP HeLa clones comprising the TRADD-EYFP reporter molecule transfected into HeLa cells as described in Example 1 was employed. The DR3 receptor (cDNA sequence shown in SEQ ID NO: 19 and encoded protein shown in SEQ ID NO: 20) which had been cloned in the vector pCR3.1 (Invitrogen) was transferred into the vector pTre2 (Clontech) using the Gateway® cloning technique with the primers Attb1 Forward primer (SEQ ID NO: 21) and Attb2 Reverse primer (SEQ ID NO: 22), yielding a pTRE2-DR3 expression vector (SEQ ID NO: 23). This expression vector was then transfected into the TRADD-EYFP HeLa clones to produce a double transformants designated HeLa TRADD DR3.
(§2) Monitoring and quantification of the TRADD-EYFP reporter molecule was conducted as described in Examples 1 and 2 above. […] The data of FIG. 17 are depicted graphically in FIG. 18.

[4] = test system: TNF-induced TRADD relocalisation in HeLa TRADD DR3 cells; experiment: TNF-induced TRADD-EYFP relocation in HeLa TRADD DR3 recombinant cells (Example 3); type: cell-based, human; conditions: in the presence of 100 ng/ml TNF; FIG. 19
Excerpt: as §1, §2

IC50 ([1]; TNF dose=300 ng/ml, FIG. 9): 2740 nM
dose-dependent inhibition of TL1A-induced relocalisation ([3]; in the presence of 300 ng/ml TL1A): not
IC50 on TNF-induced relocalisation [4]: 53.8 ng/mL
Compound: etanercept
blocking of TNF-induced relocalisation of fluorescently tagged TRADD to punctuate structures [1]: block
blocking of TNF-induced relocalisation of EYFP-TRADD ([2]; FIG. 13): blocks
dose-dependent inhibition of TNF-induced relocalisation [4]: dose-dependently inhibited

Compound: Polyinosinic-polycytidylic acid potassium salt [Poly I:C]
selectivity: relocalisation of the reporter molecule EYFP-TRADD effected by other compounds or molecules [2]: not effected

Compound: IL1β: Recombinant Human IL1β from Peprotech, Cat N° 200-01B
selectivity: relocalisation of the reporter molecule EYFP-TRADD effected by other compounds or molecules [2]: not effected

Compound: CC[C@H](C)[C@H](NC(=O)OCc1ccccc1)C(=O)N[C@@H](CCC(=O)OC)C(=O)N[C@H](C(=O)N[C@@H](CC(=O)OC)C(=O)CF)[C@@H](C)O [Z-IETD-FMK] (Cbz-IE(OMe)TD(OMe)-CH2F)
effect of downstream signalling inhibitors on detectable EYFP-TRADD clusters [2]: no dissociation of clusters

calculated EC50 of TL1A (TRADD-EYFP relocalisation to spots) ([3]; HeLa TRADD DR3 cells): 4.3 ng/mL
Compound: TL1A: Recombinant Human TL1A/TNFSF15 from R&D Systems, Cat N° 1319-TL
selectivity: relocalisation of the reporter molecule EYFP-TRADD effected by other compounds or molecules [2]: not effected

Compound: C=C1[C@@H](C)[C@H]2[C@H](Cc3ccccc3)NC(=O)[C@]23[C@H](OC(C)=O)/C=C/[C@@](C)(O)C(=O)[C@@H](C)C/C=C/[C@H]3[C@@H]1O [cytochalasin D]
effect of downstream signalling inhibitors on detectable EYFP-TRADD clusters [2]: a reduction in detectable EYFP-TRADD clusters

Compound: TRAIL: recombinant human TRAIL from Millipore, Cat N° GF092
selectivity: relocalisation of the reporter molecule EYFP-TRADD effected by other compounds or molecules [2]: not effected

Compound: O=C(c1ccc(Nc2nccc(-c3cc4ccccc4s3)n2)cc1)N1CCC(N2CCCC2)CC1 [IKK16]
effect of downstream signalling inhibitors on detectable EYFP-TRADD clusters [2]: no change in detectable EYFP-TRADD clusters

IC50 ([1]; on 1000 ng/ml TNF, FIG. 8): 2100 nM
Compound: FC(F)(F)c1nnc2c(Sc3ccccc3)nc3ccc(Cl)cc3n12 [R-7050]
blocking of TNF-induced relocalisation of fluorescently tagged TRADD to punctuate structures [1]: blocked

— US20110319287A1, “MODULATOR ASSAY” (ADDEX PHARMA S.A., priority 2009, published 2011)
